The text below walks through data of US6361764B1, “Insoluble s-triazine derivatives and their use as UV filters” (Societe L'Oreal S.A., priority 1996, dated 2002).

The nature of series [1]: solid UV absorption spectrum of a film of the screened compound dispersed in white petroleum jelly. The following applies: 5 g screened compound per 100 g petroleum jelly "Codex 236", film 10 Am thick, Shimadzu UV 2101 PC spectrophotometer. It is filed as physicochemical. The text has this:
This 2,4,6-tris[(3′-benzotriazol-2-yl-2′-hydroxy-5′-methyl)phenylamino]-s-triazine was screened at 50 μm through a screen of stainless steel-gauze stainless steel assembly. Next, it was dispersed in white petroleum jelly sold under the trade name “Codex 236” by the company Sarega at the melting point of the petroleum jelly and in a proportion of 5 g of screened 2,4,6-tris[(3′-benzotriazol-2-yl-2′-hydroxy-5′-methyl) phenylamino]-s-triazine per 100 g of petroleum jelly. This mixture was then treated with ultrasound in order to ensure homogeneous dispersion. A film 10 Am thick was analysed.
The solid UV absorption spectrum was obtained using a Shimadzu UV 2101 PC spectrophotometer and is represented in FIG. 1.
The solid UV absorption spectrum of this 2,4,6-tris[(3′-benzotriazol-2-yl-2′-hydroxy-5′-tert-octyl)phenylamino]-s-triazine was measured according to the same procedure as in Example 1. This spectrum is represented in FIG. 2.

Another series in a line: UV absorption in CHCl3. It is filed as physicochemical.

In general, melting point refers to the temperature, or range, at which the solid turns liquid. `Cc1cc(Nc2nc(Nc3cc(C)cc(-n4nc5ccccc5n4)c3O)nc(Nc3cc(C)cc(-n4nc5ccccc5n4)c3O)n2)c(O)c(-n2nc3ccccc3n2)c1` [Example 1, 2,4,6-tris[(3′-benzotriazol-2-yl-2′-hydroxy-5′-methyl)phenylamino]-s-triazine] had a melting point of over 270 °C. The “solid UV absorption spectrum: range absorbed” value in series [1] was “absorbs throughout the UV radiation range (280-400 nm)”.

With `CC(C)(C)CC(C)(C)c1cc(Nc2nc(Nc3cc(C(C)(C)CC(C)(C)C)cc(-n4nc5ccccc5n4)c3O)nc(Nc3cc(C(C)(C)CC(C)(C)C)cc(-n4nc5ccccc5n4)c3O)n2)c(O)c(-n2nc3ccccc3n2)c1` [Example 2, 2,4,6-tris[(3′-benzotriazol-2-yl-2′-hydroxy-5′-tert-octyl)phenylaminol]-s-triazine], the “solid UV absorption spectrum: range absorbed” value in series [1] is reported as “absorbs throughout the UV radiation range (280-400 nm)”. Further, in the series “UV absorption in CHCl3” (CHCl3), the “UV λmax” value is reported as 326 nm. Moreover, the “UV εmax” value in the series “UV absorption in CHCl3” (CHCl3, at λmax) was 68,600.
